14 compounds from patent US8394829B2, “Bi-functional quinoline analogs” (Gilead Sciences, Inc., priority 2010, dated 2013) can be followed below.

Broadly, the EC50 is the concentration needed to bring the measured effect to its halfway point. The term IC50 denotes the point on the concentration scale where inhibition reaches its midpoint.

Experiment [1] relates to LPS-induced TNF-α release from human peripheral blood mononuclear cells (PBMC). Nature of the experiment: Inhibition of LPS-induced TNF-α release from human PBMC. Format: cell-based. The following applies: LPS 0.4 ng/mL, 6 h, presence or absence of ICI-118551 not given. The method in brief:
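Ficoll-purified primary PBMC, 100,000 cells/well, pre-incubated 30 min ± 10 μM ICI-118551 (± gives PDE4-only vs PDE4 plus beta-2 activity), then compound 1 h at 37 °C (0.1% DMSO). Stimulated with 0.4 ng/mL LPS for 6 h; supernatant TNF-α by bead cytokine assay; IC50 from single-site fit.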

Experiment [2] has as its target T1, human recombinant beta-2 adrenoreceptors (Homo sapiens, UniProt P07550).
T1 construct: expressed in transfected cells; host or cells: CHO cells
Nature of the experiment: Functional agonism of human recombinant beta-2 adrenoreceptors expressed in CHO cells (cAMP HTRF). It counts as cell-based. The following applies: CHO cells expressing human beta-2 adrenoreceptors, cAMP elevation, 30 min. The method in brief:
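CHO cells expressing recombinant receptor incubated with compound for 30 min; intracellular cAMP rise over control read by HTRF. EC50 taken as concentration giving 50% of that compound's own maximal response, with full or partial agonism judged against isoproterenol maximum.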
A general note: Time-resolved FRET reads energy transfer from a long-lived donor to a nearby acceptor.

Experiment [3] deals with T2, Human recombinant PDE4B2 (Homo sapiens, UniProt Q07343).
T2 construct: purchased BPS Bioscience
Nature of the experiment: Inhibition of PDE4B4 enzyme activity (PDE Glo Assay). Particulars: human recombinant PDE4B2, 50 nM cAMP; read-out: PDE4 IC50. It counts as biochemical. The procedure, abridged:
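Human recombinant PDE4B2 (0.12 nM) was pre-incubated with compound for 10 min at rt, then 50 nM cAMP was added for 1 hr. After IBMX stop and PKA detection, read-out was Kinase-Glo luminescence. IC50 came from a single-site nonlinear fit of RLU versus concentration.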

In experiment [4] the target is T1, human recombinant beta-2 adrenoreceptors. Nature of the experiment: Beta-2 adrenoceptor binding assay ([3H](−)CGP-12177 displacement). The following applies: CHO cells expressing human beta-2 adrenoreceptors, [3H](−)CGP-12177 0.3 nM, 120 min. The procedure, abridged: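 Displacement of [3H](−)CGP-12177 (0.3 nM) from human recombinant beta-2 receptors expressed in CHO cells, measured after 120 min incubation with test compound. Bound radioligand counted by scintillation; IC50 taken from concentration-response curves as 50% of each compound's maximal inhibition.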

A value given as a limit tells only on which side of the number the result lay.

T2 sequence (Q07343 1-564 isoform Q07343-2): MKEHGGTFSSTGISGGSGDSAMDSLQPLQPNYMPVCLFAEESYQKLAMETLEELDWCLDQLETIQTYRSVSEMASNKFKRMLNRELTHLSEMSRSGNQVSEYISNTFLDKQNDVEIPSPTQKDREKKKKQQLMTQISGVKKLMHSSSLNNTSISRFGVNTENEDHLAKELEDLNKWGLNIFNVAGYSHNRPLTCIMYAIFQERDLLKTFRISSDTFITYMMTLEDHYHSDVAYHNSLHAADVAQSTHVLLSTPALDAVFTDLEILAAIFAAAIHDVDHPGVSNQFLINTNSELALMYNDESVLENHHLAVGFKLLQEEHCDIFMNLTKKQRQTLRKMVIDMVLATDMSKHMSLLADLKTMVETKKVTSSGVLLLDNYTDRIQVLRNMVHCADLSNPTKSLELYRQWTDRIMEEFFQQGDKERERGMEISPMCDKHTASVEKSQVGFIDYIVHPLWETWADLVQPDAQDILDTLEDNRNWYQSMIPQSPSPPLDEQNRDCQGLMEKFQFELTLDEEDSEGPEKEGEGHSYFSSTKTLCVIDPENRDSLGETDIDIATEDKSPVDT
T1 sequence (P07550 whole entry): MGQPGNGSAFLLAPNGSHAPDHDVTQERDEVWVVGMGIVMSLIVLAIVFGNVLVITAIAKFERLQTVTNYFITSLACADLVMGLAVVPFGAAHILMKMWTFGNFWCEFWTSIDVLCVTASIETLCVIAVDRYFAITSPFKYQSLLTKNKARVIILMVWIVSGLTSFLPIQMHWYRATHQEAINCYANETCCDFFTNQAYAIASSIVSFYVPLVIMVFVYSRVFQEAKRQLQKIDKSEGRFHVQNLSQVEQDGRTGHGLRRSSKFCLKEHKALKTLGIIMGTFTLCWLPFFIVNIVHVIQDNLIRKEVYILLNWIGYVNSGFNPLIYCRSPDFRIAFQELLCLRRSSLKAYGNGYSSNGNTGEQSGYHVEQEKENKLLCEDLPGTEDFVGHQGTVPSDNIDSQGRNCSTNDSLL

On to `COc1cccc(Nc2c(C(N)=O)cnc3c(C)cc(S(=O)(=O)c4cccc(C(=O)NCCCCCCNC[C@H](O)c5ccc(O)c6c5OCC(=O)N6)c4)cc23)c1` [Example 29, (R)-6-((3-((6-((2-hydroxy-2-(5-hydroxy-3-oxo-3,4-dihydro-2H-benzo[b][1,4]oxazin-8-yl)ethyl)amino)hexyl)carbamoyl)phenyl)sulfonyl)-4-((3-methoxyphenyl)amino)-8-methylquinoline-3-carboxamide], for which the EC50 in experiment [1] and in experiment [2] was less than 100 nM each time. Further, the IC50 in experiment [3] and in experiment [4] was less than 100 nM throughout.
Consider `COc1cccc(Nc2c(C(N)=O)cnc3c(C)cc(S(=O)(=O)c4cccc(C(=O)Nc5ccc(C#CCCCN(C)C[C@H](O)c6ccc(O)c7[nH]c(=O)ccc67)cc5)c4)cc23)c1` [Example 8, (R)-6-((3-((4-(5-((2-hydroxy-2-(8-hydroxy-2-oxo-1,2-dihydroquinolin-5-yl)ethyl)(methyl)amino)pent-1-yn-1-yl)phenyl)carbamoyl)phenyl)sulfonyl)-4-((3-methoxyphenyl)amino)-8-methylquinoline-3-carboxamide], for which the results for the EC50 in experiment [1] and in experiment [2] were less than 100 nM and more than 300 nM, respectively. Also, the IC50 in experiment [3] is less than 100 nM; in experiment [4] it was more than 300 nM.
Take `COc1cccc(Nc2c(C(N)=O)cnc3c(C)cc(S(=O)(=O)c4cccc(C(=O)N(C)c5ccc(C#CCCCNC[C@H](O)c6ccc(O)c7[nH]c(=O)ccc67)cc5)c4)cc23)c1` [Example 33, (R)-6-((3-((4-(5-((2-hydroxy-2-(8-hydroxy-2-oxo-1,2-dihydroquinolin-5-yl)ethyl)amino)pent-1-yn-1-yl)phenyl)(methyl)carbamoyl)phenyl)sulfonyl)-4-((3-methoxyphenyl)amino)-8-methylquinoline-3-carboxamide]: the concentration giving a half-maximal response (EC50) in experiment [1] and in experiment [2] was less than 100 nM throughout. Moreover, the half-maximal inhibitory concentration (IC50) in experiment [3] and in experiment [4] was less than 100 nM each time.
With `COc1cccc(Nc2c(C(N)=O)cnc3c(C)cc(S(=O)(=O)CCCCCCCCCCCNC[C@H](O)c4ccc(O)c5[nH]c(=O)ccc45)cc23)c1` [Example 45, (R)-6-((11-((2-hydroxy-2-(8-hydroxy-2-oxo-1,2-dihydroquinolin-5-yl)ethyl)amino)undecyl)sulfonyl)-4-((3-methoxyphenyl)amino)-8-methylquinoline-3-carboxamide], the concentration giving a half-maximal response (EC50) in experiment [1] and in experiment [2] was less than 100 nM each time. Also, the IC50 in experiment [3] and in experiment [4] was less than 100 nM in each case.
Consider `COc1cccc(Nc2c(C(N)=O)cnc3c(C)cc(S(=O)(=O)c4cccc(C(=O)Nc5ccc(C#CCCCNC[C@H](O)c6ccc(O)c(NC=O)c6)cc5)c4)cc23)c1` [Example 31, (R)-6-[[3-[[4-[5-[[2-(3-Formamido-4-hydroxyphenyl)-2-hydroxyethyl]amino]pent-1-ynyl]phenyl]carbamoyl]phenyl]sulfonyl]-4-[(3-methoxyphenyl)amino]-8-methylquinoline-3-carboxamide], for which the EC50 in experiment [1] was less than 100 nM; in experiment [2], less than 300 nM. In addition, the figures for the IC50 in experiment [3] and in experiment [4] were less than 100 nM and less than 300 nM, respectively.
For the compound `COc1cccc(Nc2c(C(N)=O)cnc3c(C)cc(S(=O)(=O)c4cccc(C(=O)Nc5ccc(C#CCCCNC[C@H](O)c6ccc(O)c7[nH]c(=O)ccc67)cc5C)c4)cc23)c1` [Example 34, (R)-6-((3-((4-(5-((2-hydroxy-2-(8-hydroxy-2-oxo-1,2-dihydroquinolin-5-yl)ethyl)amino)pent-1-yn-1-yl)-2-methylphenyl)carbamoyl)phenyl)sulfonyl)-4-((3-methoxyphenyl)amino)-8-methylquinoline-3-carboxamide], the EC50 in experiment [1] and in experiment [2] was less than 100 nM in each case. Also, the IC50 in experiment [3] and in experiment [4] was less than 100 nM in each case.
As to `COc1cccc(Nc2c(C(N)=O)cnc3c(C)cc(S(=O)(=O)c4cccc(C(=O)N5CCN(CCNC[C@H](O)c6ccc(O)c7[nH]c(=O)ccc67)CC5)c4)cc23)c1` [Example 11, 6-[3-[[4-[2-[[2-Hydroxy-2-(8-hydroxy-2-oxo-1,2-dihydroquinolin-5-yl)ethyl]amino]ethyl]piperazine-1-yl]carbonyl]benzenesulfonyl]-4-(3-methoxyphenylamino)-8-methylquinoline-3-carboxyamide], the EC50 in experiment [1] and in experiment [2] was less than 100 nM throughout. The IC50 in experiment [3] and in experiment [4] was less than 100 nM each time.
For `COc1cccc(Nc2c(C(N)=O)cnc3c(C)cc(S(=O)(=O)c4cccc(C(=O)N(C)CCCCCCNC[C@H](O)c5ccc(O)c6c5OCC(=O)N6)c4)cc23)c1` [Example 30, (R)-6-((3-((6-((2-hydroxy-2-(5-hydroxy-3-oxo-3,4-dihydro-2H-benzo[b][1,4]oxazin-8-yl)ethyl)amino)hexyl)(methyl)carbamoyl)phenyl)sulfonyl)-4-((3-methoxyphenyl)amino)-8-methylquinoline-3-carboxamide], the EC50 in experiment [1] and in experiment [2] was less than 100 nM each time. In addition, the IC50 in experiment [3] and in experiment [4] was less than 100 nM in each case.
For `COc1cccc(Nc2c(C(N)=O)cnc3c(C)cc(S(=O)(=O)c4cccc(C(=O)N5CCN(CCCCCCNC[C@H](O)c6ccc(O)c7[nH]c(=O)ccc67)CC5)c4)cc23)c1` [Example 16, (R)-6-((3-(4-(6-((2-hydroxy-2-(8-hydroxy-2-oxo-1,2-dihydroquinolin-5-yl)ethyl)amino)hexyl)piperazine-1-carbonyl)phenyl)sulfonyl)-4-((3-methoxyphenyl)amino)-8-methylquinoline-3-carboxamide], the EC50 was less than 100 nM in experiment [1] and less than 300 nM in experiment [2]. Moreover, the figures for the IC50 in experiment [3] and in experiment [4] were less than 100 nM and more than 300 nM, respectively.
On to `COc1cccc(Nc2c(C(N)=O)cnc3c(C)cc(S(=O)(=O)c4cccc(C(=O)NCCCCCCNC[C@H](O)c5ccc(O)c(NS(C)(=O)=O)c5)c4)cc23)c1` [Example 43, (R)-6-[[3-[[6-[[2-Hydroxy-2-[4-hydroxy-3-(methylsulfonamido)phenyl]ethyl]amino]hexyl]carbamoyl]phenyl]sulfonyl]-4-[(3-methoxyphenyl)amino]-8-methylquinoline-3-carboxamide], for which the EC50 in experiment [1] and in experiment [2] was less than 100 nM throughout. Moreover, the IC50 in experiment [3] and in experiment [4] was less than 100 nM throughout.
On to `COc1cccc(Nc2c(C(N)=O)cnc3c(C)cc(S(=O)(=O)c4cccc(CN(C)C(=O)c5cccc(CC(C)NC[C@H](O)c6ccc(O)c7[nH]c(=O)ccc67)c5)c4)cc23)c1` (stereo partly drawn) [Example 13, 6-[[3-[[3-[2-[[(R)-2-Hydroxy-2-(8-hydroxy-2-oxo-1,2-dihydroquinolin-5-yl)ethyl]amino]propyl]-N-methylbenzamido]methyl]phenyl]sulfonyl]-4-[(3-methoxyphenyl)amino]-8-methylquinoline-3-carboxamide], for which the half-maximal effective concentration (EC50) in experiment [1] and in experiment [2] was less than 100 nM throughout. Also, the IC50 in experiment [3] and in experiment [4] was less than 100 nM throughout.
In the case of `COc1cccc(Nc2c(C(N)=O)cnc3c(C)cc(S(=O)(=O)c4cccc(C(=O)N(C)CCOc5ccc(CCNC[C@H](O)c6ccc(O)c7[nH]c(=O)ccc67)cc5)c4)cc23)c1` [Example 25, (R)-6-((3-((2-(4-(2-((2-hydroxy-2-(8-hydroxy-2-oxo-1,2-dihydroquinolin-5-yl)ethyl)amino)ethyl)phenoxy)ethyl)(methyl)carbamoyl)phenyl)sulfonyl)-4-((3-methoxyphenyl)amino)-8-methylquinoline-3-carboxamide], the EC50 in experiment [1] and in experiment [2] was less than 100 nM each time. The IC50 is less than 100 nM in experiment [3] and more than 300 nM in experiment [4].
Turning to `COc1cccc(Nc2c(C(N)=O)cnc3c(C)cc(S(=O)(=O)c4cccc(C(=O)Nc5ccc(C#CCCCCNC[C@H](O)c6ccc(O)c7[nH]c(=O)ccc67)cc5)c4)cc23)c1` [Example 7, (R)-6-((3-((4-(6-((2-hydroxy-2-(8-hydroxy-2-oxo-1,2-dihydroquinolin-5-yl)ethyl)amino)hex-1-yn-1-yl)phenyl)carbamoyl)phenyl)sulfonyl)-4-((3-methoxyphenyl)amino)-8-methylquinoline-3-carboxamide], the EC50 in experiment [1] and in experiment [2] was less than 100 nM in each case. For the same compound, the IC50 in experiment [3] and in experiment [4] was less than 100 nM throughout.
Regarding `COc1cccc(Nc2c(C(N)=O)cnc3c(C)cc(S(=O)(=O)c4cccc(C(=O)NCCCCCCCCNC[C@H](O)c5ccc(O)c6[nH]c(=O)ccc56)c4)cc23)c1` [Example 1, (R)-6-[[3-[[8-[[2-Hydroxy-2-(8-hydroxy-2-oxo-1,2-dihydroquinolin-5-yl)ethyl]amino]octyl]carbamoyl]phenyl]sulfonyl]-4-[(3-methoxyphenyl)amino]-8-methylquinoline-3-carboxamide], the EC50 in experiment [1] and in experiment [2] was less than 100 nM in each case. Also, the IC50 in experiment [3] and in experiment [4] was less than 100 nM each time.
